Reference: patent publication US20190330142A1, “INHIBITORS OF MTOR-DEPTOR INTERACTIONS AND METHODS OF USE THEREOF” (The Regents of the University of California, priority 2016, published 2019)
Where two headings read alike, the source gives them in different places.

Assays:
DEPTOR-mTOR interaction = biological target: T1, DEPTOR-mTOR interaction (Homo sapiens, UniProt Q8TB45); assay: yeast-2-hybrid screen of NCI library; assay type: cell-based; conditions: pilot screening, hits
T1 construct: expressed in transfected cells; host or cells: yeast (two-hybrid)
Text: (§1) The third compound, NSC118305, presented several positions for variation but we were worried about the conjugated diene unit since such polyolefinic units might give a rise to non-selective toxicity. […] Therefore the final compound shown, NSC 126405, which was called simply compound B, was chosen as the first compound to modify to try to improve its activity.

DEPTOR/mTOR binding = biological target: T2, DEPTOR/mTOR binding (Homo sapiens, UniProt Q8TB45); assay: DEPTOR/mTOR co-immunoprecipitation in 8226 MM cells; assay type: cell-based; conditions: for DEPTOR/mTOR binding in MM cells: 6 hrs
T2 construct: Western blot confirmed a significant over-expression of DEPTOR protein; host or cells: 8226 multiple myeloma cells

RAPTOR-silenced MM cells = assay: MTT cytotoxicity in RAPTOR-silenced MM cells; assay type: cell-based; conditions: 48 hrs
Protocol: (§2) FIG. 5A-FIG. 5E depict exemplary assay data of compounds disclosed herein. […] Therapeutic indices (TIs) calculated as IC50 PBLs/IC50 for 8226 cells.
(§3) To compare anti-myeloma efficacy to non-specific toxicity, each of these 5 active derivatives were compared to compound B in their ability to inhibit survival of 8226 MM cells versus normal peripheral blood lymphocytes (PBLs). In head-to-head experiments, IC50 values for each target were calculated and compared. […] These derivatives were also tested for their anti-MM cytotoxicity in isogenic lines with RAPTOR knockdown.
The short hairpin RNAs (shRNA)/pLKO.1, targeting RAPTOR or a scrambled sequence (control) were obtained from Addgene. Lentivirus was produced by the UCLA Vector Core facility and stable cell lines were made by transducing cells with lentivirus and selecting in […].

MM1.S MM cell line = assay: MTT cytotoxicity assay, MM1.S cells; assay type: cell-based; conditions: Homo sapiens, 48 hr
Protocol: The MTT assay was performed by seeding 1-2×10^4 target cells in 0.1 ml of complete media into wells of a 96 well microtiter plate. After incubation with compounds, the reduction of MTT to formazan by live cells was determined with a microplate ELISA reader equipped with a 570 nm filter. Quadruplicate wells were run for each group and the SD of each group was always <5% of the mean.

p21 expression = p21 expression immunoblot; assay type: cell-based
Protocol: (§4) These were then studied in more detail. […] This was clearly shown for 4d, 4e, 4 g, and 3 g.
(§5) The 8226 and MM1.S myeloma cell lines were purchased from ATCC. The cell lines were characterized by FISH analysis and shown to contain MAF/Ig translocations. Western blot confirmed a significant over-expression of DEPTOR protein. Both lines were tested for mycoplasma within the last 6 months and were negative. Western blot assay—Protein was extracted and separated by 12.5% SDS-PAGE as previously described (see new ref below). Proteins were transferred to polyvinylidene difluoride membranes and their expression was detected utilizing specific antibodies purchased from Cell Signaling (Beverly, Mass.).

8226 MM cell line = assay: MTT cytotoxicity assay, 8226 MM cells; conditions: for anti-MM cytotoxicity in MTT assay compared to parent B: 48 hr MTT
Protocol: In mTORC1, mTOR phosphorylates the p70S6 kinase. Thus, a Western blot was used to test for induction of p70 phosphorylation in this secondary screen. Compounds were tested at 0.5, 1, and 2 uM with 6 hrs in vitro exposure. […] A summary of the p70 phosphorylation data from 4 separate experiments where derivatives were used at 0.5 uM, is shown in FIG. 3B. These first 8 derivatives were also screened for cytotoxicity against the same 8226 MM cell line in 48 hr MTT assays.
P70 phosphorylation was measured in 8226 cells treated for 6 hrs. […] The structures and biological activity of all derivatives are shown in Tables 1-4, categorized by structural modification.
The MTT assay was performed by seeding 1-2×10^4 target cells in 0.1 ml of complete media into wells of a 96 well microtiter plate. After incubation with compounds, the reduction of MTT to formazan by live cells was determined with a microplate ELISA reader equipped with a 570 nm filter.
The induction of p70 phosphorylation by derivative compounds was determined by densitometry, comparing immunoblot signals of phosphorylated p70 vs total p70. This ratio was then compared to that resulting from parental compound B, with the latter ratio arbitrarily placed at ‘1’. The IC50 for MTT cytotoxicity was determined using a range of concentrations of derivatives. Percent apoptosis was enumerated by flow cytometry in drug-treated cultures by subtracting control apoptosis determined from DMSO-treated cultures.

8226 cells = assay: apoptosis assay (activated caspase 3, flow cytometry) in 8226 cells; assay type: cell-based; conditions: 48 hrs
Protocol: as §4
To identify apoptotic cells, a phycoerythrin (PE)-conjugated antibody specific for activated caspase 3 (BD Biosciences) was used. For staining, 10^6 cells were washed with PB S and fixed and permeabilized with 0.5 ml cytofix/cytoperm solution. The cells were then incubated with a 1:5 dilution of PE-conjugated monoclonal anti-caspase 3 antibody for 30 mins and analyzed by flow cytometry.

[1] = test system: p70 phosphorylation (mTORC1 activity) in 8226 cells; assay: p70 phosphorylation Western blot (TORC1 activity) in 8226 cells; assay type: cell-based; conditions: 6 hrs; for p70 phosphorylation vs compound B at lower concentrations: as low as 0.25 uM; for induction of p70 phosphorylation: 8226 cells, 0.5 uM, compared to compound B
Protocol: In mTORC1, mTOR phosphorylates the p70S6 kinase.
as §5

[2] = test system: normal peripheral blood lymphocytes (PBLs); assay: survival of normal peripheral blood lymphocytes versus 8226 MM cells; assay type: cell-based; conditions: 48 hr assays
Protocol: as §2, §3

[3] = test system: normal hematopoietic colony forming cells; assay: colony formation of normal hematopoietic colony forming cells; assay type: cell-based; conditions: concentrations as high as 10 μM
Text: as §1

8226 myeloma tumors = assay: subcutaneous xenograft tumor model of myeloma growth; assay type: in vivo, mice; conditions: 20 mg/kg IP daily for 4 days
Protocol: Peripheral blood was analyzed for white blood cell (WBC), hematocrit (HCT), hemoglobin concentration (HgI) and platelet count.
Briefly, mice were challenged subcutaneously with 5×10^6 8226 cells and when myeloma tumors reached 500 mm^3, mice were treated with DMSO, compound B, or compound 3g (at 20 mg/kg) IP daily for 4 days. Tumor size (mean+/−SD, n=5) was assessed each day (FIG. 8A). *=different from control (DMSO), p<0.05, **=different from compound B, p<0.05. After 4 days of treatment, mice were sacrificed and peripheral blood analyzed for WBC, hematocrit (HCT), hemoglobin concentration (HgI) and platelet count (FIG. 8B). Data are % of control (determination in DMSO-Rx'd mice), mean+/−SD, n=5. *=different from DMSO control, p<0.05.

OPM2 = assay: therapeutic index against OPM2 myeloma cell line; assay type: cell-based
Text: (§6) FIG. 6A-FIG. 6D depict exemplary assay data for compounds disclosed herein. […] FIG. 6D highlights IC50 data for 3 g and Compound B (NSC126405).

DEPTOR = biological target: T3, DEPTOR (Homo sapiens, UniProt Q8TB45); assay: DEPTOR degradation; assay type: cell-based
T3 construct: endogenous in cells
Text: FIG. 7A-FIG. 7F depict exemplary assay data for compounds disclosed herein. […] FIG. 7E and FIG. 7F depict data showing the anti-tumor effect was blunted by further transfection of DEPTOR to over-express the protein.

H929 = assay: therapeutic index against H929 myeloma cell line; assay type: cell-based
Text: as §6

[4] = 48 h, read-out: MTT (IC50, uM) 8226

T1 sequence (Q8TB45 whole entry): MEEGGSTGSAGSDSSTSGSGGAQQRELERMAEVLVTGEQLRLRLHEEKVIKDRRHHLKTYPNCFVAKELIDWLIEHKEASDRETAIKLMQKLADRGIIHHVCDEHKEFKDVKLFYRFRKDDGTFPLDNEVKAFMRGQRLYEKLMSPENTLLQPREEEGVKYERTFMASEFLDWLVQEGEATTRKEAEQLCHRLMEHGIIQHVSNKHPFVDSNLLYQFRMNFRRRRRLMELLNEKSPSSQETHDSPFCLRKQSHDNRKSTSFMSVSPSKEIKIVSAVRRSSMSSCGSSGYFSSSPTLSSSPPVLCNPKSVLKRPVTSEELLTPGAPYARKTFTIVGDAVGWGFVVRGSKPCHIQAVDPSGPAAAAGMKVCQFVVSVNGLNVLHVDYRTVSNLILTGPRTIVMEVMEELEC
T2 sequence (Q8TB45 whole entry): as above
T3 sequence (Q8TB45 whole entry): as above

With CCCCCCCCNS(=O)(=O)c1ccccc1 [NSC119670] as the compound, how does the “inhibition of the DEPTOR-mTOR interaction” value (DEPTOR-mTOR interaction) read?
Its value is “specifically inhibited the DEPTOR-mTOR interaction”.

How did the “DEPTOR/mTOR binding in MM cells” value (DEPTOR/mTOR binding; 0.5 uM) turn out when CC(C)(C)OC(=O)NN=C1C(Cl)=C(Cl)C(Cl)=C1Cl [4g, tert-Butyl 2-(perchlorocyclopenta-2,4-dien-1-ylidene)hydrazine-1-carboxylate] was run?
The value was “prevented DEPTOR/mTOR binding”.

And the “cytotoxicity against RAPTOR-silenced MM cells vs control shSCRAMBLE” value (“cytotoxicity … vs control shSCRAMBLE” for short) (RAPTOR-silenced MM cells)?
Its value is “significantly decreased cytotoxicity”.

And the IC50 (MM1.S MM cell line)?
Its IC50 is 0.6 µM.

And the “p21 expression compared to parent compound B” value (p21 expression)?
The value was “enhanced p21 expression”.

What about the IC50 (8226 MM cell line; [4]) of the same compound?
The IC50 was 0.1 µM.

And the “anti-MM cytotoxicity in MTT assay compared to parent B” value (8226 MM cell line)?
Its value is “enhanced cytotoxic effects”.

What about the “apoptosis activity compared to parent compound B” value (8226 cells) of the same compound?
Its value is “enhanced compared to parent compound B”.

And the “p70 phosphorylation vs compound B at lower concentrations” value [1]?
Its value is “significantly more effective”.

And the “therapeutic index (IC50 PBLs/IC50 for 8226 cells) compared to compound B” value (shortened to “therapeutic index … to compound B”) [2]?
The value was “significantly improved therapeutic indices”.

With CN(C)c1ccc(/C=C2\C=Cc3ccccc32)cc1F [NSC118305] as the compound, how does the “inhibition of the DEPTOR-mTOR interaction” value (DEPTOR-mTOR interaction) read?
Its value is “specifically inhibited the DEPTOR-mTOR interaction”.

Which results are given for NN=C1C(Cl)=C(Cl)C(Cl)=C1Cl [compound B, (Perchlorocyclopenta-2,4-dien-1-ylidene)hydrazine, reference compound]?
DEPTOR/mTOR binding in MM cells (DEPTOR/mTOR binding; 0.5 uM): ineffective; DEPTOR/mTOR binding in MM cells (DEPTOR/mTOR binding; 1 uM): prevents DEPTOR/mTOR binding; IC50 (MM1.S MM cell line): 3 µM; toxicity to normal hematopoietic colony formation [3]: not toxic to colony formation; IC50 (8226 MM cell line; 48 h, read-out: MTT (IC50, uM) 8226, 48 hr): 1.3 µM; IC50 (8226 MM cell line; read-out: MTT (IC50, uM) 8226, 48 hr): 1.5 µM; inhibition of the DEPTOR-mTOR interaction (DEPTOR-mTOR interaction): specifically inhibited the DEPTOR-mTOR interaction; induction of p70 phosphorylation [1]: consistently ineffective

FC(F)(F)c1cccc(NN=C2C(Cl)=C(Cl)C(Cl)=C2Cl)c1 [compound 3g, 1-(Perchlorocyclopenta-2,4-dien-1-ylidene)-2-(3-(trifluoromethyl)phenyl)hydrazine] was tested. Which “DEPTOR/mTOR binding in MM cells” value (DEPTOR/mTOR binding; 0.5 uM) did it give?
The value was “prevented DEPTOR/mTOR binding”.

What about the “binding of DEPTOR to mTOR” value (DEPTOR/mTOR binding; concentration not given) of the same compound?
The value was “inhibits binding of DEPTOR to mTOR”.

What about the “cytotoxicity … vs control shSCRAMBLE” value (RAPTOR-silenced MM cells) of the same compound?
The value was “significantly decreased cytotoxicity”.

And the “anti-tumor efficacy (tumor size)” value (8226 myeloma tumors)?
The value was “more efficacious than NSC 126405”.

And the “effect on normal WBC counts” value (8226 myeloma tumors; peripheral blood)?
The value was “only a minimal effect”.

What about the IC50 (MM1.S MM cell line) of the same compound?
The IC50 was 1 µM.

What about the “therapeutic index versus NSC126405” value (OPM2) of the same compound?
Its value is “enhanced therapeutic index”.

What about the “p21 expression compared to parent compound B” value (p21 expression) of the same compound?
Its value is “enhanced p21 expression”.

What about the IC50 (8226 MM cell line; [4]) of the same compound?
Its IC50 is 0.17 µM.

And the “anti-MM cytotoxicity in MTT assay compared to parent B” value (8226 MM cell line)?
The value was “enhanced cytotoxic effects”.

What about the “apoptosis activity compared to parent compound B” value (8226 cells) of the same compound?
Its value is “enhanced compared to parent compound B”.

And the “p70 phosphorylation vs compound B at lower concentrations” value [1]?
Its value is “significantly more effective”.

And the “therapeutic index … to compound B” value [2]?
Its value is “enhanced therapeutic index”.

And the “therapeutic index … to compound B” value ([2]; listed as 3 g)?
The value was “significantly improved therapeutic indices”.

What about the “degradation of DEPTOR” value (DEPTOR) of the same compound?
Its value is “induces the rapid proteasome-dependent degradation of DEPTOR”.

And the “therapeutic index versus NSC126405” value (H929)?
Its value is “enhanced therapeutic index”.

Which “DEPTOR/mTOR binding in MM cells” value (DEPTOR/mTOR binding; 0.5 uM) does the source give for Fc1ccc(NN=C2C(Cl)=C(Cl)C(Cl)=C2Cl)cc1 [3k, 1-(4-Fluorophenyl)-2-(perchlorocyclopenta-2,4-dien-1-ylidene)hydrazine] here?
The value was “prevented DEPTOR/mTOR binding”.

What about the “cytotoxicity … vs control shSCRAMBLE” value (RAPTOR-silenced MM cells) of the same compound?
Its value is “significantly decreased cytotoxicity”.

What about the IC50 (MM1.S MM cell line) of the same compound?
The IC50 was 1.3 µM.

And the IC50 (8226 MM cell line; [4])?
Its IC50 is 0.7 µM.

What about the “anti-MM cytotoxicity in MTT assay compared to parent B” value (8226 MM cell line) of the same compound?
Its value is “enhanced cytotoxic effects”.

What about the “apoptosis activity compared to parent compound B” value (8226 cells) of the same compound?
The value was “enhanced compared to parent compound B”.

What about the “induction of p70 phosphorylation” value [1] of the same compound?
Its value is “much better activity”.

And the “p70 phosphorylation vs compound B at lower concentrations” value [1]?
The value was “significantly more effective”.

And the “therapeutic index … to compound B” value [2]?
The value was “significantly improved therapeutic indices”.
